Reference: US20120302748A1, “TREATMENT OR PROPHYLAXIS OF PROLIFERATIVE CONDITIONS” (THE UNIVERSITY COURT OF THE UNIVERSITY OF DUNDEE, priority 2009, published 2012)
Where two headings read alike, the source gives them in different places.

How the values were obtained:
CHO/CYP1B1 cells [1] = system: CHO/CYP1B1 cells
CYP1B1 [2] = target: T1, CYP1B1 (Homo sapiens, UniProt Q16678); test: Supersomal CYP1B1 fragmentation of coumarin model prodrugs (kinetic fluorimetry); assay type: biochemical; design: purchased BD Gentest, Oxford, UK; settings: for Specific fragmentation activity CYP1B1: 10 μmol dm^−3 prodrug, 10 pmol enzyme, pH 7.4, 37° C., mean ± standard deviation of three
T1 sequence (Q16678 1-543): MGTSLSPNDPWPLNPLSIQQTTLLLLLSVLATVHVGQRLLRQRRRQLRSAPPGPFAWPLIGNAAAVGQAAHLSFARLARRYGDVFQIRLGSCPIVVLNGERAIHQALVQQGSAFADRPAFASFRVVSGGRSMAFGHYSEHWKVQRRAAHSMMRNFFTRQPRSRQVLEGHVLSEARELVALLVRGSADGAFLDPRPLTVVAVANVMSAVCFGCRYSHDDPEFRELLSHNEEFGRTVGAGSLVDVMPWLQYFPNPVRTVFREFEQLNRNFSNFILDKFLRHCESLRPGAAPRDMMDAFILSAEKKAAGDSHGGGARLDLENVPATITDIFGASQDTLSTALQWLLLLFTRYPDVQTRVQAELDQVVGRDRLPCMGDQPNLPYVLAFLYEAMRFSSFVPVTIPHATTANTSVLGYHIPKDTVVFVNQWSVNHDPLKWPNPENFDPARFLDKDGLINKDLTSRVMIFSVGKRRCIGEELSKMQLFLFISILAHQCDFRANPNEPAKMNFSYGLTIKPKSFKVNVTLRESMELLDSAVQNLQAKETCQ
Protocol: (§1) Supersomal™ enzyme metabolism was started by adding a stock solution of prodrug dissolved in DMSO to give a final concentration of 10 μmol dm^−3 prodrug and 0.5% DMSO. HLM screening used 60 microlitre microsomes, 100 μmol dm^−3 NADPH, in 10 mmol dm^−3 potassium phosphate buffer at pH 7.4 and 37° C., in 1.5 ml total reaction volume.
(§2) Therefore, enzymatic hydroxylation of the hetero-aromatic trigger and resultant linker fragmentation can be monitored in real time by release of the coumarin anion by kinetic fluorimetry.
(§3) Release of the coumarin anion indicative of linker fragmentation was monitored using a 1 cm path length fluorescence cell in a Cary Eclipse kinetic flourimeter with excitation and emission slits set at 5 nm. Coumarin anion release from compounds of the invention was detected at the excitation wavelength λex=350 nm and the emission wavelength λem=450 nm. Change in fluorescence intensity was quantified against a linear calibration plot of fluorescence intensity versus coumarin concentration (0 to 3.5 μmol dm^−3) in 10 mmol dm^−3 potassium phosphate buffer at pH 7.4 using the same instrument settings as for enzyme metabolism.

[3] = system: human liver microsomes (HLM); test: Pooled human liver microsome (HLM) fragmentation of coumarin model prodrugs; assay type: in vitro ADME; settings: 60 μl HLM in 1.5 ml, pH 7.4, 37° C.; mean ± standard deviation of three
Protocol: as §1, §2, §3

CYP1A2 = target: T2, CYP1A2 (Homo sapiens, UniProt P05177); test: Supersomal CYP1A2 fragmentation of coumarin model prodrugs (kinetic fluorimetry); assay type: biochemical; settings: 10 μmol dm^−3 prodrug, 10 pmol enzyme, pH 7.4, 37° C.; mean ± standard deviation of three
T2 construct: purchased BD Gentest, Oxford, UK
T2 sequence (P05177 2-516 limits assumed): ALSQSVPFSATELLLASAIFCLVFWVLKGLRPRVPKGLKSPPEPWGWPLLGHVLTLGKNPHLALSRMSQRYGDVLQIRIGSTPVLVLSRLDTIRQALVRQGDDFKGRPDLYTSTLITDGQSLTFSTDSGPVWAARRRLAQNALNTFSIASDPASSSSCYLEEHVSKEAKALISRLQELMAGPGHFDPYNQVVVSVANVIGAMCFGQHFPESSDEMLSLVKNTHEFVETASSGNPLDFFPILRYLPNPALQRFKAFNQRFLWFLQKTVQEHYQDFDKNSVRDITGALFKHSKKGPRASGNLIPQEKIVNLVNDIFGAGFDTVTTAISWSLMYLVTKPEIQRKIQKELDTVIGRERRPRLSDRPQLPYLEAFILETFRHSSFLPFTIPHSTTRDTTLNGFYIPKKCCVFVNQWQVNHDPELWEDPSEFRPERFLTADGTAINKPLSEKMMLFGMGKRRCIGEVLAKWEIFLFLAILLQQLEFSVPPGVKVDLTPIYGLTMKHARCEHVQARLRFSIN
Protocol: as §1, §2, §3

CYP1A1 [4] = test: in vitro; settings: Chinese hamster
CHO/CYP1B1 cells [5] = test: cells; settings: Cricetulus griseus
CYP1B1 [6] = target: T1, CYP1B1; test: CYP1B1 substrate inhibition, P450-Glo Luciferin-CEE luminescent assay; settings: human
CYP1B1 [7] = target: T1, CYP1B1; test: CYP1B1 substrate prediction model (Gaussian Kernel weighted k-NN); settings: predicted versus actual
in vitro = settings: Chinese hamster
UT-SCC-14 tumour cells = test: Cytotoxicity in primary HNSCC tumour cell line UT-SCC-14 (MTS assay); settings: Homo sapiens, 72 h, read-out: cytotoxicity IC50 UT-SCC-14
Protocol: A UT-SCC-14 tumour cell suspension at 2000 cells per well on a 96-well plate and if necessary add fresh media to give a total volume per well of 100 μl. The cells were allowed to attach for 4 h in an incubator. […] The final concentration of ethanol 0.2% was found not to effect the growth characteristics of the UT-SCC-14 cell line. The UT-SCC-14 cells were incubated with test compound for 72 h after which time all aspirated and replaced with 100 μl of fresh medium to compensate for the loss of medium due to evaporation. The cells were incubated with 20 μl of the MTS assay reagent for 1.5 h and the absorbance per well at 510 nm measured using a plate reader. The mean absorbance and standard deviation for each test compound concentration was calculated versus a series of controls including (a) cells plus medium, (b) cell plus medium containing ethanol 0.2%, (c) medium alone, and (d) medium containing ethanol 0.2% and a range of test compound concentrations from 0 to 100 μmol dm^−3.

CYP1A1 [8] = target: T3, CYP1A1 (Homo sapiens, UniProt P04798); test: Supersomal CYP1A1 fragmentation of coumarin model prodrugs (kinetic fluorimetry); assay type: biochemical; design: purchased BD Gentest, Oxford, UK; settings: 10 μmol dm^−3 prodrug, 10 pmol enzyme, pH 7.4, 37° C.; mean ± standard deviation of three
T3 sequence (P04798 1-512): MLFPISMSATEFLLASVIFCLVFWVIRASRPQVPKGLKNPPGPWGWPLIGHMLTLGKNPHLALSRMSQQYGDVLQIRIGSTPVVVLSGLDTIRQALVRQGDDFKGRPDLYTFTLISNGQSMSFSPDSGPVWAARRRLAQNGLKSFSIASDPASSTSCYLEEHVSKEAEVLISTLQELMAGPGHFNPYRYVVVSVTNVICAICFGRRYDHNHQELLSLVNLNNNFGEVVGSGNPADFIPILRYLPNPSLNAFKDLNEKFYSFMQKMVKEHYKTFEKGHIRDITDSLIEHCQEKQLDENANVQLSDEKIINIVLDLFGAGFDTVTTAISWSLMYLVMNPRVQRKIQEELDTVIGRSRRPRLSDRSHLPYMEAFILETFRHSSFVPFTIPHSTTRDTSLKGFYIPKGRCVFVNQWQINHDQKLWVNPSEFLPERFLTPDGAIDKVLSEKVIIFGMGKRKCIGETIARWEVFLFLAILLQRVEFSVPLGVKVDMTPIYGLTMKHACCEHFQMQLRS
Protocol: as §1, §2, §3

CYP1B1 [9] = target: T1, CYP1B1; test: in vitro

Structure (SMILES) | Specific fragmentation activity CYP1B1 (CYP1B1 [2]) | Specific fragmentation activity HLM [3] | Specific fragmentation activity CYP1A2 (CYP1A2) | % CYP1B1 substrate inhibition accuracy (CYP1B1 [7]) [%] | inhibition at 0.5 mmol dm^−3 (CYP1B1 [9]) [%] | further results
O=P(O)(NCCCl)NCCCl [Cl-IPM, N,N-bis(2-chloro-ethyl)phosphoramide, reference compound] |  |  |  |  |  | IC50 (CHO/CYP1B1 cells [1]; Chinese hamster): 8 ± 5 nM
Cc1cc(=O)oc2cc(OCc3cc4ccccc4o3)ccc12 [SU010A, 7-(benzofuran-2-ylmethoxy)-4-methyl-2H-chromen-2-one] | 5.19 ± 0.15 pmol coumarin min^−1 pmol cytochrome P450^−1 | 22.8 ± 0.69 pmol coumarin min^−1 pmol cytochrome P450^−1 |  |  |  | 
Cc1cc(=O)oc2cc(NC(=O)OCc3cc4ccccc4o3)ccc12 [SU018-03, benzofuran-2-ylmethyl 4-methyl-2-oxo-2H-chromen-7-ylcarbamate] | no release | no release | no release |  |  | 
COc1cc(OC)c2oc(COP(=O)(NCCCl)NCCCl)cc2c1 [SU025-04] |  |  |  | 96 |  | IC50 (CYP1A1 [4]): 25500 ± 1000 nM; IC50 (CHO/CYP1B1 cells [5]; 72 h, read-out: Cytotoxicity (IC50) CHO/CYP1B1 72 h): 9 ± 5 nM; IC50 (CHO/CYP1B1 cells [5]; 96 h, read-out: Cytotoxicity (IC50) CHO/CYP1B1 96 h): 3 ± 2 nM; inhibition at 0.5 mmol dm^−3 (CYP1B1 [6]): 91.22 ± 0.48%; IC50 (in vitro; Cytotoxicity (IC50) CHO 72 h): 15200 ± 200 nM; IC50 (in vitro; Cytotoxicity (IC50) CHO 96 h): 10100 ± 300 nM; IC50 (in vitro; cytotoxicity IC50 in wild-type CHO cells): ≥ 10000 nM; IC50 ratio 72 h (CHO / CHO/CYP1B1) (CHO/CYP1B1 cells [1]): 1689; IC50 (UT-SCC-14 tumour cells): 50 ± 10 nM
COc1cc(OC)c2oc(COC(=O)Nc3ccn(C4OC(CO)C(O)C4(F)F)c(=O)n3)cc2c1 (stereo not drawn) [SU048-04, (5,7-dimethoxybenzofuran-2-yl)methyl 1-(3,3-difluoro-4-hydroxy-5-(hydroxymethyl)-tetrahydrofuran-2-yl)-2-oxo-1,2-dihydropyrimidin-4-ylcarbamate] |  |  |  |  |  | IC50 (UT-SCC-14 tumour cells): 940 ± 20 nM
Cc1cc(=O)oc2cc(OCc3cc4cc(F)ccc4o3)ccc12 [VG015-05, 7-((5-fluorobenzofuran-2-yl)methoxy)-4-methyl-2H-chromen-2-one] | 3.16 ± 0.28 pmol coumarin min^−1 pmol cytochrome P450^−1 |  |  |  |  | 
Cc1cc(=O)oc2cc(OCc3cc4cc(F)cc(F)c4o3)ccc12 [VG016-05, 7-((5,7-difluorobenzofuran-2-yl)methoxy)-4-methyl-2H-chromen-2-one] | no release | no release | no release | 82 | 2.45 ± 0.32 | Specific fragmentation activity CYP1A1 (CYP1A1 [8]): no release
COc1ccc2oc(COc3ccc4c(C)cc(=O)oc4c3)cc2c1 [VG027-05, 7-((5-methoxybenzofuran-2-yl)methoxy)-4-methyl-2H-chromen-2-one] | 11.83 ± 0.15 pmol coumarin min^−1 pmol cytochrome P450^−1 | 8.98 ± 0.49 pmol coumarin min^−1 pmol cytochrome P450^−1 |  |  |  | 
Cc1cc(=O)oc2cc(OCc3cc4cc(Cl)ccc4o3)ccc12 [VG028-05, 7-((5-chlorobenzofuran-2-yl)methoxy)-4-methyl-2H-chromen-2-one] | 6.67 ± 0.01 pmol coumarin min^−1 pmol cytochrome P450^−1 |  |  |  |  | 
COc1cccc2cc(COc3ccc4c(C)cc(=O)oc4c3)oc12 [VG029-05, 7-((7-methoxybenzofuran-2-yl)methoxy)-4-methyl-2H-chromen-2-one] | 6.45 ± 1.15 pmol coumarin min^−1 pmol cytochrome P450^−1 |  |  |  |  | 
COc1ccc2oc(COC(=O)Nc3ccc4c(C)cc(=O)oc4c3)cc2c1 [VG032-05, (5-methoxybenzofuran-2-yl)methyl 4-methyl-2-oxo-2H-chromen-7-ylcarbamate] | 1.53±0.09 pmol coumarin min^−1 pmol cytochrome P450^−1 | 3.21 ± 0.25 pmol coumarin min^−1 pmol cytochrome P450^−1 | no release |  |  | CYP1B1 specific fragmentation activity, fold lower than VG027-05 (CYP1B1 [2]; carbamate linker versus ether linker): ~6 fold
Cc1cc(=O)oc2cc(OCc3cc4cc(Br)ccc4o3)ccc12 [VG035-04, 7-((5-bromobenzofuran-2-yl)methoxy)-4-methyl-2H-chromen-2-one] | 8.85 ± 0.28 pmol coumarin min^−1 pmol cytochrome P450^−1 |  |  |  |  | 
COc1cc(OC)c2oc(COc3ccc4c(C)cc(=O)oc4c3)cc2c1 [VG035-05, 7-((5,7-dimethoxybenzofuran-2-yl)methoxy)-4-methyl-2H-chromen-2-one] | 13.65±1.00 pmol coumarin min^−1 pmol cytochrome P450^−1 | no release | no release | 96 | 97.34 ± 0.32 | Specific fragmentation activity CYP1A1 (CYP1A1 [8]): no release
Cc1cc(=O)oc2cc(NC(=O)OCc3cc4cc(Br)ccc4o3)ccc12 [VG036-05, (5-bromobenzofuran-2-yl)methyl 4-methyl-2-oxo-2H-chromen-7-ylcarbamate] | no release | no release | no release |  |  | Specific fragmentation activity CYP1A1 (CYP1A1 [8]): no release
COc1cc(OC)c2oc(COC(=O)Nc3ccc4c(C)cc(=O)oc4c3)cc2c1 [VG041-05, (5,7-dimethoxybenzofuran-2-yl)methyl 4-methyl-2-oxo-2H-chromen-7-ylcarbamate] | no release | no release | no release |  |  | 
CCOc1ccc2nc3ccc(=O)cc-3oc2c1 [ethoxyresorufin, 7-ethoxyresorufin] |  |  |  | 95 | 92.13 ± 0.56 | 
C=C[C@H]1C[N@@]2CC[C@H]1C[C@@H]2[C@@H](O)c1ccnc2ccc(OC)cc12 [quinidine] |  |  |  | 64 | 1.63 ± 0.34 | 
Oc1ccc(C=Cc2cc(O)cc(O)c2)cc1 [resveratrol] |  |  |  | 95 | 72.34 ± 0.56 | 
Nc1ccc(S(=O)(=O)Nc2ccnn2-c2ccccc2)cc1 [sulfaphenazole] |  |  |  | 68 | 2.89 ± 0.15 | 
